In ChEMBL document CHEMBL1148225, “Discovery and SAR of trisubstituted thiazolidinones as CCR4 antagonists” (Bioorg Med Chem Lett, 2004):

Legend:
[1] = biological target: T1, C-C chemokine receptor type 4 (Homo sapiens, UniProt P51679); assay: Inhibitory activity against [125I]MDC binding to human Chemokine receptor type 4 expressed in murine pre-B cells; format: cell-based
T1 sequence (P51679 whole entry): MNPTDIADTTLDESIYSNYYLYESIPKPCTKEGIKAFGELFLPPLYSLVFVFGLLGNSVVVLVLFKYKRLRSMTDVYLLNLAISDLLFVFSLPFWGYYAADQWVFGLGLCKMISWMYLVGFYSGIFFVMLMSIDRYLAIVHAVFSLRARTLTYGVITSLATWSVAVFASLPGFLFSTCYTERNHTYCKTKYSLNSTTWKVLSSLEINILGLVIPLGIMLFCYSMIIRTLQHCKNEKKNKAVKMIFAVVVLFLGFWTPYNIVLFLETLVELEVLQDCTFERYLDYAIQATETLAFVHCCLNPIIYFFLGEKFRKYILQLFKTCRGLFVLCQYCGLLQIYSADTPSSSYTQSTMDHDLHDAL

[2] = biological target: T1, C-C chemokine receptor type 4; assay: Inhibition of [125I]MDC binding to recombinant human C-C chemokine receptor type 4 (CCR4) expressed in murine pre-B cells; format: cell-based
[3] = biological target: T2, C-C chemokine receptor type 4 (Homo sapiens) (UniProt P51679); assay: Dose required to inhibit TARC-stimulated chemotaxis in CCR4+ Th2 cell lines derived from primary human T-cells; format: functional, cell-based
T2 sequence (whole entry): T1 sequence (P51679 whole entry)

Row | Structure (SMILES) | IC50 [1] [µM] | IC50 [2] [µM] | ED50 [3] [µM]
1 | O=C(C[C@H]1S[C@H](c2ccc(C(F)(F)F)cc2C(F)(F)F)N(CC(=O)NCCCN2CCOCC2)C1=O)NCc1cccc2ccccc12 | > 100 | – | –
2 | C[C@@H](NC(=O)C[C@H]1S[C@H](c2ccc(Cl)cc2Cl)N(CC(=O)NCCCN2CCCCC2)C1=O)c1cccc2ccccc12 | – | 0.11 | 0.3
3 | CN1CCC(NC(=O)CN2C(=O)[C@@H](CC(=O)NCc3cccc4ccccc34)S[C@@H]2c2ccc(Cl)cc2Cl)CC1 | – | 8 | –
4 | O=C(C[C@H]1S[C@H](c2cccc(Cl)c2)N(CC(=O)NCCCN2CCOCC2)C1=O)NCc1cccc2ccccc12 | – | 7 | –
5 | O=C(C[C@H]1S[C@H](c2ccc(Cl)cc2Cl)N(CC(=O)NCCCN2CCOCC2)C1=O)NCCc1ccc(Cl)c(Cl)c1 | – | 13 | –
6 | CN(C)CCN1C(=O)[C@@H](CC(=O)NCc2cccc3ccccc23)S[C@@H]1c1ccc(Cl)cc1Cl | – | 36 | –
